# Read-outs that look alike come from different tables or passages of the source.
# How the values were obtained:
# [1] = test system: IGF-I receptor; settings: chronic ethanol feeding; temporal lobe, hypothalamus, and cerebellum
# Source text: (§1) Male (˜200 g) Long Evans rats (Charles River Laboratories, Cambridge, Mass.) were fed isocaloric liquid diets (BioServ, Frenchtown, N.J.) in which ethanol comprised 0% or 37% of the caloric content (9.25% v/v) for 6 weeks (Yeon et al., Hepatology 38:703 (2003)). A chow fed control group was also studied. Rats were monitored daily to ensure equivalent food consumption and maintenance of body weight. Upon sacrifice, the brains were harvested and either immersion fixed in Histochoice fixative (Amresco Corp., Solon, Ohio) for paraffin embedding, or sliced fresh to micro-dissect temporal cortex, hypothalamus, and cerebellum. The fresh tissue blocks were snap frozen in a dry ice-methanol bath and stored at −80° C. for mRNA and protein studies.
# (§2) Fresh frozen tissue (˜100 mg) was homogenized in 5 volumes of NP-40 lysis buffer (50 mM Tris-HCl, pH 7.5, 1% NP-40, 150 mM NaCl, 1 mM EDTA, 2 mM EGTA) containing protease inhibitors (1 mM PMSF, 0.1 mM TPCK, 1 μg/ml aprotinin, 1 μg/ml pepstatin A, 0.5 μg/ml leupeptin, 1 mM NaF, 1 mM Na4P2O7). Protein concentrations were determined using the bicinchoninic acid (BCA) assay (Pierce, Rockford, Ill.). Exploratory studies determined the amounts of protein and concentrations of radiolabeled ligand required to achieve 20% specific binding. Insulin receptor binding assays were performed using 100 μg protein. IGF-I binding assays required 25 μg protein per sample, and IGF-II receptor binding assays were optimized using 10 μg protein. Competitive equilibrium binding assays were used to assess growth factor binding in relation to ethanol exposure. For total binding, duplicate individual protein samples were incubated in 100 μl reactions containing binding buffer (100 mM HEPES, pH 8.0, 118 mM NaCl, 1.2 mM MgSO4, 8.8 mM dextrose, 5 mM KCl, 1% bovine serum albumin) and 100 nCi/ml of [^125I] (2000 Ci/mmol; […]) insulin, IGF-I, or IGF-II. To measure non-specific binding, replicate samples were identically prepared but with the addition of 0.1 μM unlabeled (cold) ligand.
# (§3) All reactions were performed in 1.5 ml Eppendorff tubes, and the incubations were performed at 4° C. for 16 hours with gentle platform agitation. Bound radiolabeled tracer was then precipitated by adding 500 μl of 0.15% bovine gamma globulin (prepared in 100 mM Tris-HCl, pH 8.0) followed by 400 μl 37.5% polyethylene glycol 8000 (PEG-8000; prepared in 100 mM Tris-HCl, pH 8.0) to each tube. […] The samples were counted for 1 minute in an LKB CompuGamma CS Gamma counter. Specific binding was calculated by subtracting fmol of non-specific binding, i.e., amount bound in the presence of cold ligand, from the total fmol bound (absence of unlabeled competitive ligand). The results were analyzed and plotted using the GraphPad Prism 4 software (GraphPad Software, Inc., San Diego, Calif.). […]
# [2] = test system: IGF-II receptor; settings: chronic ethanol feeding
# Source text: as §1, §2, §3
# [3] = test system: insulin receptor; settings: chronic ethanol feeding; temporal lobe, hypothalamus, and cerebellum
# Source text: as §1, §2, §3
# [4] = test system: AChE mRNA; settings: chronic ethanol feeding; temporal lobe, hypothalamus, cerebellum
# Source text: as §1
# (§4) Total RNA was isolated from brain tissue using TRIzol reagent (Invitrogen, Carlsbad, Calif.) according to the manufacturer's protocol. RNA concentrations and purity were determined from the absorbances measured at 260 nm and 280 nm. […] Real time quantitative RT-PCR was used to measure mRNA levels of insulin, IGF-I, and IGF-II growth factors, their corresponding receptors, neuronal (Hu), astrocytic (glial fibrillary acidic protein; GFAP), oligodendroglial (myelin-associated glycoprotein-1; MAG-1), microglial (AIF1), and endothelial (endothelin-1; ET-1) cell genes, acetyl cholinesterase (AChE), and choline acetyltransferase (ChAT). […]
# [5] = test system: ChAT mRNA; settings: chronic ethanol feeding; hypothalamus and cerebellum
# Source text: as §1, §4
# [6] = test system: insulin receptors; settings: pup cerebellar membrane extracts, chronic gestational ethanol exposure relative to control; not dose-dependent
# Experimental: (§5) Fresh frozen tissue (˜100 mg) was homogenized in 5 volumes of NP-40 lysis buffer (50 mM Tris-HCl, pH 7.5, 1% NP-40, 150 mM NaCl, 1 mM EDTA, 2 mM EGTA) containing protease inhibitors (1 mM PMSF, 0.1 mM TPCK, 1 μg/ml aprotinin, 1 μg/ml pepstatin A, 0.5 μg/ml leupeptin, 1 mM NaF, 1 mM Na4P2O7). Protein concentrations were determined using the bicinchoninic acid (BCA) assay (Pierce, Rockford, Ill.). Exploratory studies determined the amounts of protein and concentrations of radiolabeled ligand required to achieve 20% specific binding. Insulin receptor binding assays were performed using 100 μg protein. IGF-I binding assays required 25 μg protein per sample, and IGF-II receptor binding assays were optimized using 10 μg protein. […]
# (§6) All reactions were performed in 1.5 ml Eppendorff tubes, and the incubations were performed at 4° C. for 16 hours with gentle platform agitation. […] The samples were counted for 1 minute in an LKB CompuGamma CS Gamma counter. Specific binding was calculated by subtracting fmol of non-specific binding, i.e., amount bound in the presence of cold ligand, from the total fmol bound (absence of unlabeled competitive ligand). The results were analyzed and plotted using the GraphPad Prism 4 software (GraphPad Software, Inc., San Diego, Calif.).
# [7] = test system: IGF-I receptors; settings: pup cerebellar membrane extracts, chronic gestational ethanol exposure relative to control; not dose-dependent
# Experimental: as §5, §6
# [8] = test system: IGF-II receptors; settings: pup cerebellar membrane extracts, chronic gestational ethanol exposure relative to control; not dose-dependent
# Experimental: as §5, §6
# [9] = test system: cerebellar membrane cholesterol content; settings: 8% ethanol diet group, pups
# Experimental: Cholesterol content was measured using the Amplex Red assay kit (Molecular Probes, Eugene, Oreg.) according to the manufacturer's protocol. […] Briefly, tissue homogenates were prepared in RIPA buffer as described above. Samples, serially diluted in 1× reaction buffer (provided with the kit), were incubated with 150 μM Amplex Red reagent, 1 U/ml horseradish peroxidase, 1 U/ml cholesterol oxidase, and 0.1 U/ml cholesterol esterase in final reaction volumes of 100 μl. Reactions were incubated at 37° C. for 30 minutes and fluorescence was measured in a Fluorocount microplate reader (Packard Instrument Co., Meriden, Conn.) (Ex 560 nm/Em 590 nm). A standard curve was simultaneously generated using a cholesterol standard provided with the kit. The levels of cholesterol were normalized to protein concentration in the samples.
smiles,measurement,setting,value
CCO [ethanol],IGF-I receptor binding,[1],significantly reduced
same,IGF-II receptor binding,"[2]; cerebella, relative to control rats",significantly lower
same,IGF-II receptor binding,[2]; temporal lobe and hypothalamus,relatively preserved
same,insulin receptor binding,[3],significantly reduced
same,expression of AChE,[4],did not significantly alter
same,ChAT mRNA expression,[5],significantly reduced
same,impairment of insulin receptor binding,[6],~80%
same,impairment of IGF-I receptor binding,[7],~80%
same,impairment of IGF-II receptor binding,[8],~50%
same,reduction of cerebellar membrane cholesterol content relative to control,[9],~50%

# Reference: patent US9308198B2, “Treatment, prevention, and reversal of alcohol-induced brain disease” (priority 2006, dated 2016)
